Assay results from patent US20050059608A1, “Pharmaceutical compounds” (priority 2001, published 2005).

Columns and labels:
[1] = after oral administration; cited from earlier work
[2] = Hydrolysis in 10% rabbit liver homogenate; assay type: in vitro ADME; conditions: 10% rabbit liver homogenate (9,000 g supernatant), pH 7.4, 37° C., read-out: t1/2 of hydrolysis in rabbit liver homogenate
Description: (§1) The HPLC system used consisted of a Beckman System Gold Programmable Solvent Module 126, Beckman System Gold Detector Module 166 with variable wavelength UV detector (set at 254 nm) and a Beckman System Gold Autosampler 507e. Separations were accomplished on a Purospher RP-18 reverse-phase column, 12.5 cm×4.0 mm i.d., 5 μm (Merck, Darmstadt, Germany). The chromatographic conditions were as follows: injection volume, 50 μl; column temperature, 40° C.; flow rate, gradient/isocratic at 1.0 ml/min. The mobile phase consisted of various proportions of methanol/water mixture (90:10) and a citrate/phosphate buffer pH 2.2.
The rabbit liver was homogenized with approximately four equivalent volumes of isotonic phosphate buffer at pH 7.4 using an X-1020 homogenizer (Ystral, Germany). The homogenate was centrifuged for 90 min at 9,000 g and 4° C. with a Biofuge 28 RS centrifuge (Heraeus Instruments, Germany). The supernatant was stored at −80° C. until analysis. An appropriate amount was dissolved in one volume of preheated 20% liver homogenate. The solution was then incubated at 37° C. At appropriate time intervals, samples (300 μl) were withdrawn. Samples were pretreated with 300 μl of methanol to terminate enzymatic activity. […] The residue was dissolved in 400 μl of the mobile phase buffer and analyzed by HPLC.

[3] = Hydrolysis in aqueous solution (chemical hydrolysis in phosphate buffer); assay type: physicochemical; conditions: aqueous phosphate buffer 0.16 M; for half-life: read-out: Pseudo-first order half-time (t1/2) for chemical hydrolysis (converted)
Description: as §1
The rate of chemical hydrolysis was determined in aqueous phosphate buffer solution (0.16 M) at pH 7.4, 5.0, and 1.2 at 37° C. An appropriate amount was dissolved in 10 ml of preheated buffer and the solution was placed in a thermostatically controlled water bath at 37° C. At appropriate time intervals, samples were taken and analyzed for the remaining codrug by HPLC. Pseudo-first order half-time (t1/2) for the hydrolysis was calculated from the slope of the linear portion of the plotted logarithm of remaining codrug vs. time.

Question: Which bioavailability of entacapone [1] does the source give for `CCN(CC)C(=O)/C(C#N)=C/c1cc(O)c(O)c([N+](=O)[O-])c1` [entacapone, (E)2-cyano-N,N-diethyl-3-(3,4-dihydroxy-5-nitrophenyl)propenamide] here?
Answer: 29-46%

Question: Which results are given for `CCN(CC)C(=O)/C(C#N)=C/c1cc(OC(=O)N[C@@H](Cc2ccc(O)c(O)c2)C(=O)OC)c(O)c([N+](=O)[O-])c1` [Example 1, (S)-2-{5-[(E)-2-cyano-2-(diethylcarbamoyl)vinyl]-2-hydroxy-3-nitrophenoxycarbonylamino}-3-(3,4-dihydroxyphenyl)propionic acid methyl ester]?
Answer: half-life [2]: 7 min; Pseudo-first order half-time (t1/2) for chemical hydrolysis ([3]; pH 1.2, 37° C.): 12.1 h; half-life ([3]; pH 5.0, 37° C.): 1.4 h; half-life ([3]; pH 7.4, 37° C.): 1.1 h
